Drawing on PubChem BioAssay (NCI), this text covers TGI and GI50 for 35 compounds.

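Cultured in 96-well plates, cells were exposed to test compound for 48 hours across five concentrations. GI50: concentration for 50% inhibition of growth. The concentration for full growth arrest is given as TGI.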 Where a SMILES comes first, the peptide text is derived from it. The star is where a group is joined. Boc = CC(C)(C)OC(=O)*; OSu = O=C1CCC(=O)N1O* Some results are limits rather than exact numbers.

Common to all, as to assay: NCI tumour cell line growth inhibition, 48 h
For test [1], the system named is A498 renal.
For test [2], the system named is BT-549 breast.
Test [3] has as its system CCRF-CEM leukemia.
For test [4], the system named is M14 melanoma.
Test [5] deals with OVCAR-8 ovarian.
Test [6] relates to SF-268 CNS.
Test [7] has as its system TK-10 renal.
The subject of test [8] is UACC-257 melanoma.

`Nc1nc(Cl)c(N)c(NCC2(CO)CC(OCc3ccccc3)C2)n1` (stereo unspecified): the TGI in test [1], in test [2], in test [3], in test [4], in test [5] and in test [6] was greater than 100 µM throughout. For the same compound, the TGI in test [7] and in test [8] was greater than 100 µM in each case.

As to `O=C(Nc1cccc(-n2ccc3c(NC(=O)c4ccccc4)nccc32)c1)Nc1cc(C(F)(F)F)cc(C(F)(F)F)c1`, the GI50 in test [1] was 1.53 µM; in test [3] it was 1.76 µM; in test [4] it was 1.11 µM; in test [5], 1.65 µM; in test [6], 2.71 µM; in test [7], 1.83 µM. In test [8], the GI50 is 2.45 µM. Further, the TGI was greater than 50 µM in test [1]; greater than 50 µM in test [3]; 2.56 µM in test [4]; 5.14 µM in test [5]; greater than 50 µM in test [6]; 32.5 µM in test [7]. Besides, in test [8], the TGI is 15.2 µM.

In the case of `CN(CCn1cnc2c1c(=O)n(C)c(=O)n2C)C1CCCCC1`, the TGI in test [1], in test [2], in test [3], in test [4], in test [5] and in test [6] was greater than 100 µM in each case. Besides, the TGI in test [7] and in test [8] was greater than 100 µM in each case.

Turning to `C[n+]1c(-c2ccc(/C=N/NC(=N)N/N=C/c3ccc(-c4cn5cc(Cl)ccc5[n+]4C)cc3)cc2)cn2cc(Cl)ccc21`, the TGI in test [3], in test [4], in test [5], in test [6], in test [7] and in test [8] was greater than 100 µM each time.

Turning to `COC(=O)/C=C\n1c(C)cc(=O)[nH]c1=O`, the TGI in test [1], in test [2], in test [3], in test [4], in test [5] and in test [6] was greater than 100 µM in each case. The TGI in test [7] and in test [8] was greater than 100 µM each time.

Consider `CC[C@]12C=CCN3CC[C@@]4(c5cc(Br)c(OC)cc5N(C)[C@H]4[C@@](O)(C(=O)NN)[C@@H]1O)[C@@H]32`, for which the TGI in test [1], in test [2], in test [3], in test [4], in test [5] and in test [6] was greater than 100 µM throughout. Moreover, the TGI in test [7] and in test [8] was greater than 100 µM each time.

Take `CC(C)/C(Cl)=N\OC(=O)Nc1ccccc1F`: the TGI in test [1] turned out to be 28.3 µM; in test [2] it was 27.6 µM; in test [3], 3.44 µM; in test [4], 13.3 µM; in test [5], 31.4 µM; in test [6], 41.9 µM. Moreover, the TGI was 27.6 µM in test [7] and 33.2 µM in test [8].

As to `CCCCC(C#N)(OP1(=O)OC(c2ccccc2)C(C)N1C)c1ccccc1` (stereo unspecified), the TGI in test [1] was 33.6 µM; in test [2] it was 43.6 µM; in test [3], 40.3 µM; in test [4] it was 38.3 µM; in test [5], 38.8 µM; in test [6], 35.9 µM. For the same compound, the TGI is 37.1 µM in test [7] and 33.7 µM in test [8].

`Nc1ncnc2c1nnn2C1C=CC(COS(N)(=O)=O)C1` (stereo unspecified): the TGI was greater than 100 µM in test [3]; 25 µM in test [4]; 55 µM in test [5]; 93.6 µM in test [6]; 36.4 µM in test [7]; 62.6 µM in test [8].

Consider `O=C1CCC2(CC1CC(Sc1ccccc1)Sc1ccccc1)OCCO2` (stereo unspecified), for which the TGI in test [1], in test [3], in test [4], in test [5], in test [6] and in test [7] was greater than 100 µM throughout. The TGI in test [8] is greater than 100 µM.

On to `Cc1c(Cl)nc(Nc2nc3ccccc3[nH]2)nc1Cl`, for which the TGI in test [1], in test [2], in test [4], in test [5], in test [6] and in test [7] was greater than 100 µM throughout. In test [8], this compound came in with a TGI greater than 100 µM.

With `CC(NC(=O)C(NC(=O)OC(C)(C)C)C(C)C)C(=O)NCC(=O)ON1C(=O)CCC1=O` (stereo not drawn) (Boc-Val-Ala-Gly-OSu; configuration not given here), the TGI in test [2], in test [4], in test [5], in test [6], in test [7] and in test [8] was greater than 100 µM throughout.

As for `CCOC(=O)c1cc(-c2cc(OC)c(OC)c([N+](=O)[O-])c2)c([N+](=O)[O-])n1C`, the TGI in test [2], in test [3], in test [4], in test [5], in test [6] and in test [7] was greater than 10 µM in each case. In test [8], this compound came in with a TGI greater than 10 µM.

For `O=C(O)c1cc2ccccc2c(N=Nc2ccc(S(=O)(=O)Nc3nccs3)cc2)c1O`, the TGI in test [3], in test [4], in test [5], in test [6], in test [7] and in test [8] was greater than 100 µM in each case.

For `CC1(C)N=C(C(N)=O)c2ncn(N)c2N1`, the TGI in test [1], in test [3], in test [4], in test [5], in test [6] and in test [7] was greater than 100 µM throughout. The TGI in test [8] was greater than 100 µM.

`CCCCc1ccc(Nc2nc3c(ncn3C3CC(O)C(CN=[N+]=[N-])O3)c(=O)[nH]2)cc1` (stereo unspecified): the TGI in test [1], in test [2], in test [3], in test [4], in test [5] and in test [6] was greater than 100 µM in each case. Besides, the TGI in test [8] was greater than 100 µM.

For the compound `COc1ccc2nc3c([N+](=O)[O-])ccc4c3c(c2c1)NCCN4CCO`, the TGI in test [1] was 2 µM; in test [3], 2 µM; in test [4], 1.78 µM; in test [5] it was 2.01 µM; in test [6] it was 6.26 µM; in test [7], 4.51 µM. In test [8], this compound showed a TGI of 1.5 µM.

For `NC(N)=N/N=C/c1nc2n(c1[N+](=O)[O-])CCS2`, the TGI in test [1], in test [2], in test [4], in test [5], in test [6] and in test [7] was greater than 100 µM in each case. Moreover, the TGI in test [8] was determined as 44.6 µM.

Consider `Cc1cnc2sn(-c3ccc(Oc4ccccc4)cc3)c(=O)c2c1`, for which the TGI in test [2] was 42.2 µM; in test [3], greater than 100 µM; in test [4], 30.8 µM; in test [5], greater than 100 µM; in test [6], 38.2 µM; in test [7], 40.1 µM. This compound had a TGI in test [8] of 43.7 µM.

With `O=S(=O)(c1ccccc1)n1c2ccc(Br)cc2c2nc3ccccc3nc21`, the TGI in test [1], in test [3], in test [4], in test [5], in test [6] and in test [7] was greater than 100 µM throughout. Besides, the TGI in test [8] was greater than 100 µM.

Turning to `CCCCCCCCOC1C(O)C(O)C(O)C(O)C12CO2` (stereo unspecified), the TGI in test [1], in test [2], in test [3], in test [5], in test [6] and in test [7] was greater than 100 µM throughout. Also, the TGI in test [8] was greater than 100 µM.

As to `O=C(/C=C/c1ccc(O)cc1)c1ccc2c(c1)OCO2`, the TGI worked out at 38.4 µM in test [1]; 5.69 µM in test [3]; 51.9 µM in test [4]; 29.6 µM in test [5]; 58.5 µM in test [6]; 33.6 µM in test [8].

Regarding `CCCSc1ccc2[nH]c(N3C(=O)/C(=C/c4ccco4)N=C3c3ccccc3)cc2c1`, the TGI in test [1], in test [2], in test [3], in test [4], in test [5] and in test [6] was greater than 50 µM each time. Further, the TGI in test [8] is greater than 50 µM.

`CC(=O)N=C1N(/C=C2\C(=O)Oc3ccccc3C2=O)C(=O)/C(=C/c2ccc(OC(C)=O)cc2)N1C`: the TGI in test [1], in test [3], in test [4], in test [5], in test [6] and in test [8] was greater than 100 µM in each case.

As for `OC(c1cc2ccccc2o1)c1cc2ccccc2s1` (stereo unspecified), the TGI in test [3], in test [4], in test [5], in test [6], in test [7] and in test [8] was greater than 10 µM in each case.

Take `[N-]=[N+]=C1N=CN=C1c1ncn[nH]1`: the TGI is greater than 100 µM in test [1]; 27.6 µM in test [3]; greater than 100 µM in test [4]; greater than 100 µM in test [5]; greater than 100 µM in test [7]; greater than 100 µM in test [8].

On to `CCC(CON(C)c1ccccc1)(SC)SC`, for which the TGI in test [2], in test [3], in test [4], in test [5], in test [6] and in test [7] was greater than 100 µM each time. Further, the TGI in test [8] is greater than 100 µM.

As to `Oc1ccc(-c2nc(-c3cccnc3)c(-c3ccc(Cl)cc3)[nH]2)cc1O`, the TGI in test [2] is 21.6 µM; in test [3] it was greater than 100 µM; in test [4] it was 26.4 µM; in test [5], 30.2 µM; in test [6] it was 39.7 µM; in test [7], 26.7 µM. In test [8], this compound showed a TGI of 28.3 µM.

For `CC(=O)[C@@]1(C)CC2(CCN(C)CC2)OC1C` (stereo partly specified), the TGI in test [1], in test [2], in test [4], in test [5], in test [6] and in test [7] was greater than 100 µM throughout. Further, the TGI in test [8] was greater than 100 µM.

Regarding `Cc1nc(C)c(C(=O)NNC(N)=S)cc1C(=O)NNC(N)=S`, the TGI in test [2], in test [4], in test [5], in test [6], in test [7] and in test [8] was greater than 100 µM throughout.

As for `COC(=O)C1Cc2c(OC)ccc(OC)c2CC(C(=O)OC)C1=O` (stereo unspecified), the TGI in test [1], in test [2], in test [3], in test [4], in test [5] and in test [6] was greater than 100 µM in each case. In addition, the TGI in test [8] is greater than 100 µM.

As for `CCC12CCCN(Cc3ccccc3)C1c1c([nH]c3ccccc13)C(C(=O)OC)C2` (stereo unspecified), the TGI in test [2], in test [3], in test [4], in test [5], in test [6] and in test [7] was greater than 10 µM throughout. The TGI in test [8] was greater than 10 µM.

On to `BrCCCCCOc1ccc(-c2c3ccccc3c(-c3ccc(OCCCCCBr)cc3)c3ccccc23)cc1`, for which the TGI in test [3], in test [4], in test [5], in test [6], in test [7] and in test [8] was greater than 100 µM throughout.

For `COC(=O)C(Cc1c[nH]c2ccccc12)NC(=O)C(Cc1c[nH]c2ccccc12)NC(=O)C(Cc1c[nH]c2ccccc12)NC(=O)C(Cc1c[nH]c2ccccc12)NC(=O)C(Cc1c[nH]c2ccccc12)NC(=O)C(Cc1c[nH]c2ccccc12)NC(=O)OC(C)(C)C` (stereo unspecified) (Boc-WWWWWW-OMe; configuration not given here), the TGI in test [2], in test [3], in test [5], in test [6], in test [7] and in test [8] was greater than 100 µM in each case.

For the compound `COC(=O)/C(=C\Nc1cccc(C)n1)S(=O)(=O)c1ccc(C)cc1`, the TGI in test [3], in test [4], in test [5], in test [6], in test [7] and in test [8] was greater than 100 µM each time.
